Measured values taken from US20180318386A1, “PEPTIDES AND METHODS OF TREATING ENDOMETRIOSIS USING THE SAME” (BIOINCEPT, LLC, priority 2014, published 2018).

Columns and labels:
Lymphocytes = test: FITC-PIF binding to mare immune cells, flow cytometry: lymphocytes; format: cell-based
Description: (§1) Method: whole blood was collected from jugular vein of pregnant (n=4) and non-pregnant (n=8) mares into lithium heparin vacutainers. Whole blood was layered over histopaque (Sigma) density gradient and red cells were allowed to settle through the gradient, leaving a leukocyte-rich plasma layer above. Cells were washed twice in sterile PBS and any remaining RBCs lysed with 0.16 M ammonium chloride solution. […] Cell types were separated based upon their scatter characteristics. […] FIG. 20 and Table 20 show mean+/−SEM in both pregnant and non-pregnant mares, and depicts binding characteristics showing significant differences between FITC-PIF and control, P<0.001.

CD4+/CD25+/FoxP3+ cells = test: FITC-PIF binding to regulatory T-cells, two- and three-color flow cytometry; format: cell-based, human; conditions: 0-100 uM FITC-labelled peptide
Monocytes = test: FITC-PIF binding to mare immune cells, flow cytometry: monocytes; format: cell-based
Description: as §1

Granulocytes = test: FITC-PIF binding to mare immune cells, flow cytometry: granulocytes; format: cell-based
Description: as §1

[1] = Non-pregnant mares, 1 ug/ml FITC-labelled peptide (n = 8)
[2] = Non-pregnant mares, 5 ug/ml FITC-labelled peptide (n = 8)
[3] = Non-pregnant mares, 10 ug/ml FITC-labelled peptide (n = 7)
[4] = Pregnant mares, 1 ug/ml FITC-labelled peptide (n = 4)
[5] = Pregnant mares, 5 ug/ml FITC-labelled peptide (n = 4)
[6] = Pregnant mares, 10 ug/ml FITC-labelled peptide (n = 4)

GRVDPSNKSMPKDIA (scrPIF-1 (15)) [PIFscr, control]
binding to Lymphocytes, Mean (Lymphocytes; [1]): 0.27
binding to Lymphocytes, Mean (Lymphocytes; [2]): 1.08
binding to Lymphocytes, Mean (Lymphocytes; [3]): 2.04
binding to Lymphocytes, Mean (Lymphocytes; [4]): 0.12
binding to Lymphocytes, Mean (Lymphocytes; [5]): 0.78
binding to Lymphocytes, Mean (Lymphocytes; [6]): 2.84
binding to CD4+/CD25+/FoxP3+ cells (CD4+/CD25+/FoxP3+ cells): minimal binding
binding to Monocytes, Mean (Monocytes; [1]): 1.10
binding to Monocytes, Mean (Monocytes; [2]): 5.20
binding to Monocytes, Mean (Monocytes; [3]): 12.39
binding to Monocytes, Mean (Monocytes; [4]): 0.78
binding to Monocytes, Mean (Monocytes; [5]): 6.36
binding to Monocytes, Mean (Monocytes; [6]): 31.07
binding to Granulocytes, Mean (Granulocytes; [1]): 0.26
binding to Granulocytes, Mean (Granulocytes; [2]): 1.78
binding to Granulocytes, Mean (Granulocytes; [3]): 3.89
binding to Granulocytes, Mean (Granulocytes; [4]): 0.09
binding to Granulocytes, Mean (Granulocytes; [5]): 0.93
binding to Granulocytes, Mean (Granulocytes; [6]): 4.51
